Laboratory results as given in patent US9181281B2, “Prodrugs of neuraminidase inhibitors” (priority 2008, dated 2015).
Read-outs that look alike come from different tables or passages of the source.

Tests used:
[1] = 10 mg-eq/kg oral gavage to rats; cited from earlier work
[2] = cited from earlier work; for bioavailability: species not stated
[3] = Permeability in rat perfused jejunum; format: in vivo
Source text: Improved permeability of prodrugs Zan-Val, GOC-Val, and 3-HPG-Ile compared to the parent compounds is observed in the rat perfused jejunum, as shown in FIG. 3.

hPEPT1 [4] = target: T1, hPEPT1 (Homo sapiens, UniProt P46059); assay: [3H]Gly-Sar uptake inhibition in HeLa/hPEPT1 cells; format: cell-based; design: expressed in transfected cells; host or cells: HeLa
T1 sequence (P46059 1-708): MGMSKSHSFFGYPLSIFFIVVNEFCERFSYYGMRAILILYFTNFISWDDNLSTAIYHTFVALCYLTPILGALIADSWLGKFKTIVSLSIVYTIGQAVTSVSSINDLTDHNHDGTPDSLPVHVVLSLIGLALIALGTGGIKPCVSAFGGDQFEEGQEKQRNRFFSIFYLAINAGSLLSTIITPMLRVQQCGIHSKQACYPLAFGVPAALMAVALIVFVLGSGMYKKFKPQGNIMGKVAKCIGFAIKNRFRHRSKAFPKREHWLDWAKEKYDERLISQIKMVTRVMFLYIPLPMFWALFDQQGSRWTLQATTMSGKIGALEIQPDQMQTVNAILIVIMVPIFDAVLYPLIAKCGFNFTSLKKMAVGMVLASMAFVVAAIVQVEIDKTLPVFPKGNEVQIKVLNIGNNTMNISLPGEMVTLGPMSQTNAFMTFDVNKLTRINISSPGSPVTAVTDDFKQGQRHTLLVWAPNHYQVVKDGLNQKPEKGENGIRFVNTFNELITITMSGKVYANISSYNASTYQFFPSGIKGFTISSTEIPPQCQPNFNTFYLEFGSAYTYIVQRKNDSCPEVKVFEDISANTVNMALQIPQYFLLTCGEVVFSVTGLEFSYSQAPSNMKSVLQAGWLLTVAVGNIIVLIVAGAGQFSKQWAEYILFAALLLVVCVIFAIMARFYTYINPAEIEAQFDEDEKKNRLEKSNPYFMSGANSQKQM

VACVase = target: T2, VACVase (Homo sapiens, UniProt Q86WA6); assay: Hydrolysis of prodrugs by VACVase (Michaelis-Menten kinetics)
T2 sequence (Q86WA6 38-291): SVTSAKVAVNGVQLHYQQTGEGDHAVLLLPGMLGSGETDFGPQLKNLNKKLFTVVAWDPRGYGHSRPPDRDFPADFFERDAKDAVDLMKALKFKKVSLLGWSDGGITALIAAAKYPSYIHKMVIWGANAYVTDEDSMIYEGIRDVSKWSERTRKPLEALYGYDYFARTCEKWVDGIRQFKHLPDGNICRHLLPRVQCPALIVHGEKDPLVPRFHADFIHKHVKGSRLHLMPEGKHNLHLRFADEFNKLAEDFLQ

[5] = Hydrolysis of prodrugs in buffer over pH 1.2-7.4 at 37° C.; format: physicochemical; conditions: pH range 1.2-7.4, 37° C.
Method: The hydrolysis of prodrugs of the present invention in buffer was studied over the pH range 1.2-7.4 at 37° C.

[6] = AUC and bioavailability of GOC and GOC prodrugs in fasted rats (IV or duodenal injection); conditions: for AUC0-4 hr, Prodrug / AUC0-4 hr, Total AUC / AUC0-4 hr, GOC / % F: rat
Method: 10 mg-eq/kg of GOC or GOC prodrugs were directly injected to duodenum segment of fasted rats. […] Appropriate volume of blood samples was taken from the jugular vein at the predetermined time points.
Rat plasma samples were analyzed for GOC prodrug and GOC using LCMSMS following solid phase extraction sampling preparation. A reverse phase solid-phase cartridge (HLB, 30 mg/1 cc, Waters) was activated with 1.0 mL of methanol and equilibrated with 1.0 mL of water. A 250 ul aliquot of rat plasma was acidified with 250 uL of 1% TFA solution and loaded on to the cartridges. After washing with 1.0 ml water, the compounds are eluted with 1 ml of 2% acetic acid solution. The eluted solvent was evaporated under nitrogen stream in TurboVap and the residue was reconstituted in 250 ul of mobile phase.
Samples were analyzed using a LC/MS/MS system (Micromass Quattro II, HP 1100). The HPLC system consisted of a HP1100 system (Hewlett Packard, CA). 10 ul of sample was separated with a C18 column (2.1×150 mm) using a mobile phase of 10-30% acetonitrile:water containing 0.1% formic acid. Quattro II triple quadrupole mass spectrometer (Micromass, Beverly, Mass.) interfaced with the HPLC via electropray source was used for the mass analysis and detection. The data acquisition software was MassLynx (version 4.0). Calibration curves were constructed by weighted (1/x) least square regression of peak area versus concentrations of the calibration standards.
Bioavailability calculation is based on the AUC0-4 hrs.

[7] = tested on: influenza virus neuraminidase; conditions: read-out: IC50, influenza virus neuraminidase; cited from earlier work
hPEPT1 [8] = target: T1, hPEPT1; assay: [3H]Gly-Sar uptake inhibition in Caco-2 cells; format: cell-based
Method: The affinity of zanamivir, GOC, 3-hydroxyphenylglycine (3-HPG) and prodrugs thereof for particular transporters is evaluated using [^3H]Gly-Sar uptake inhibition in Caco-2 cells and in HeLa/hPEPT1 cells. Valacyclovir, a known substrate of hPEPT1, was used as positive control (Table 1). […] The valyl and isoleucyl prodrugs of zanamivir, GOC, and 3-HPG have higher affinity for hPEPT1 than the parent compounds.

[9] = substrate: CC(C)[C@H](N)C(=O)OCCOCn1cnc2c(=O)[nH]c(N)nc21; assay: purified protein, by the assay type; conditions: 25.0 °C
[10] = HeLa/hPEPT1 cells, mean ± sd, n = 2, read-out: IC50 of [3H]Gly-Sar uptake inhibition
[11] = duodenal administration (OGI) 10 mg-eq/kg

CCOC(=O)C1=C[C@@H](OC(CC)CC)[C@H](NC(C)=O)[C@@H](N)C1 [GS4104, oseltamivir]
% F [1]: 35% | Cmax [1]: 47 ng/mL | oral bioavailability ([2]; in rats, mice, dogs and ferrets): 11-73%

CC(=O)N[C@H]1[C@H]([C@H](O)[C@H](O)CO)OC(C(=O)OC(C)OC(=O)[C@@H](N)C(C)C)=C[C@@H]1NC(=N)N (stereo partly shown) [Zan-Val, valine ethoxyester of zanamivir]
jejunal permeability [3]: high permeability, higher than that of metoprolol | IC50 (hPEPT1 [4]; [10]): 1950 ± 190 µM | Kcat (VACVase; hydrolysis by VACVase, 25° C.): 21.2 s⁻¹ | Km (VACVase; hydrolysis by VACVase, 25° C.): 1550 µM | Vmax (VACVase; hydrolysis by VACVase, 25° C.): 47.2 nmol/min/μg of VACVase | hydrolysis behaviour in buffer [5]: pH dependent hydrolysis

CC(C)[C@H](N)C(=O)OCCOCn1cnc2c(=O)[nH]c(N)nc21 [Valcyclovir, Valacyclovir]
IC50 (hPEPT1 [4]): 1880 ± 510 µM | Vmax (VACVase): 280 nmol/min/μg of VACVase

CCC(CC)O[C@@H]1C=C(C(=O)OCCNC(=O)[C@@H](N)C(C)C)C[C@H](NC(=N)N)[C@H]1NC(C)=O [GOC GlyOH L-Val]
species found in plasma after dosing ([6]; rat plasma, OGI 10 mg-eq/kg): Only a trace amount of GOC is detected in the plasma | AUC0-4 hr, Prodrug [6, 11]: 386 ± 406 (ng/mL) · hrs | AUC0-4 hr, Total AUC [6, 11]: 401 ± 419 (ng/mL) · hrs

CCC(CC)O[C@@H]1C=C(C(=O)O)C[C@H](NC(=N)N)[C@H]1NC(C)=O [GOC, guanidino oseltamivir carboxylate]
jejunal permeability [3]: very low, essentially zero permeability | % F [1]: 4.0% | Cmax [1]: 60 ng/mL | affinity for the transporter (hPEPT1 [4]; HeLa/hPEPT1 cells): poor affinity | IC50 (hPEPT1 [4]; [10]): 6600 ± 3900 µM | IC50 [7]: 0.0009 µM | affinity for the transporter (hPEPT1 [8]): poor affinity | bioavailability [2]: ~4.0% | AUC0-4 hr, GOC ([6]; IV injection 1 mg/kg): 385 ± 167 (ng/mL) · hrs | AUC0-4 hr, Total AUC ([6]; IV injection 1 mg/kg): 385 ± 167 (ng/mL) · hrs | % F ([6]; IV injection 1 mg/kg (reference)): 100.0% | AUC0-4 hr, GOC [6, 11]: 265 ± 91 (ng/mL) · hrs | AUC0-4 hr, Total AUC [6, 11]: 265 ± 91 (ng/mL) · hrs | % F ([6]; duodenal administration (OGI) 10 mg-eq/kg, based on AUC0-4 hrs): 4.6%

CC[C@H](C)[C@H](N)C(=O)OC(C)OC(=O)C1=C[C@H](NC(=N)N)[C@@H](NC(C)=O)[C@H]([C@H](O)[C@H](O)CO)O1 (stereo partly shown) [Zan-Ile, zanamivir ethoxyisoleucine ester]
IC50 (hPEPT1 [4]; [10]): 3040 ± 800 µM

CCC(CC)O[C@@H]1C=C(C(=O)OC(C)OC(=O)[C@@H](N)C(C)C)C[C@H](NC(=N)N)[C@H]1NC(C)=O (stereo partly shown) [GOC-Val, valine ethoxyester of guanidine oseltamivir]
jejunal permeability [3]: high permeability, higher than that of metoprolol | IC50 (hPEPT1 [4]; [10]): 190 ± 10 µM | Kcat (VACVase; hydrolysis by VACVase, 25° C.): 8.7 s⁻¹ | Km (VACVase; hydrolysis by VACVase, 25° C.): 2370 µM | Vmax (VACVase; hydrolysis by VACVase, 25° C.): 19.4 nmol/min/μg of VACVase | hydrolysis behaviour in buffer [5]: pH dependent hydrolysis

CCC(CC)O[C@@H]1C=C(C(=O)OC(C)OC(=O)[C@@H](N)[C@@H](C)CC)C[C@H](NC(=N)N)[C@H]1NC(C)=O (stereo partly shown) [GOC-Ile, isoleucine ethoxyester of guanidine oseltamivir]
IC50 (hPEPT1 [4]; [10]): 450 ± 180 µM | hydrolysis behaviour in buffer [5]: pH dependent hydrolysis

CCOC(=O)C1=C[C@@H](OC(CC)CC)[C@H](NC(C)=O)[C@@H](NC(=N)N)C1 [GS4109]
Cmax [1]: 30 ng/mL | bioavailability [2]: approximately 2%

NC(C(=O)O)c1cccc(O)c1 (stereo not shown) [3-HPG, 3-hydroxyphenylglycine]
jejunal permeability [3]: very low, essentially zero permeability | affinity for the transporter (hPEPT1 [4]; HeLa/hPEPT1 cells): poor affinity | IC50 (hPEPT1 [4]; [10]): > 5000 µM | affinity for the transporter (hPEPT1 [8]): poor affinity

CCC(CC)O[C@@H]1C=C(C(=O)OCC(C)OC(=O)[C@@H](N)C(C)C)C[C@H](NC(=N)N)[C@H]1NC(C)=O (stereo partly drawn) [GOC PG L-Val]
AUC0-4 hr, Prodrug [6, 11]: 17 ± 12 (ng/mL) · hrs | AUC0-4 hr, Total AUC [6, 11]: 116 ± 61 (ng/mL) · hrs

CCC(CC)[C@H](NC(C)=O)[C@@H]1[C@H](O)[C@@H](C(=O)O)C[C@H]1N=C(N)N [peramivir]
oral bioavailability ([2]; peramivir, clinical trials context): ≤ 3%

CCC(CC)O[C@@H]1C=C(C(=O)O)C[C@H](N)[C@H]1NC(C)=O [GS4071, oseltamivir carboxylate]
Cmax [1]: 30 ng/mL | bioavailability [2]: ~4.0%

CC(=O)N[C@H]1[C@H]([C@H](O)[C@H](O)CO)OC(C(=O)O)=C[C@@H]1N=C(N)N [Zanamivir, zanamivir]
jejunal permeability [3]: very low, essentially zero permeability | % F [1]: 3.7% | Cmax [1]: 60 ng/mL | affinity for the transporter (hPEPT1 [4]; HeLa/hPEPT1 cells): poor affinity | IC50 (hPEPT1 [4]; [10]): > 30000 µM | affinity for the transporter (hPEPT1 [8]): poor affinity | absolute oral availability ([2]; in vivo, po): ~2%

B1: VACVase (Homo sapiens) (protein)
chain: SVTSAKVAVNGVQLHYQQTGEGDHAVLLLPGMLGSGETDFGPQLKNLNKKLFTVVAWDPRGYGHSRPPDRDFPADFFERDAKDAVDLMKALKFKKVSLLGWSDGGITALIAAAKYPSYIHKMVIWGANAYVTDEDSMIYEGIRDVSKWSERTRKPLEALYGYDYFARTCEKWVDGIRQFKHLPDGNICRHLLPRVQCPALIVHGEKDPLVPRFHADFIHKHVKGSRLHLMPEGKHNLHLRFADEFNKLAEDFLQ
Km [9]: 590 µM | kcat [9]: 126 s⁻¹ | kcat/Km [9]: 213000 M⁻¹ s⁻¹
